Test results from patent US20080014186A1, “Hla-A24 or Hla-A2 Binding Peptides of Parathyroid Hormone-Related Protein” (GREEN PEPTIDE CO., LTD., priority 2004, published 2008).

Tests used:
[1] = system: IgG in plasma of HLA-A2^+ healthy donors and prostate cancer patients; assay: Peptide-specific IgG in plasma by ELISA (HLA-A2-binding PTHrP peptides); parameters: species or system human; conditions: for IgG reactive to the peptide in plasma (difference of OD): 1:100-diluted plasma
Protocol: Peptide-specific IgG levels in the plasma were measured by ELISA, as previously reported. In brief, peptide (20 μg/well)-immobilized plates were blocked with Block Ace (Yukijirushi, Tokyo, Japan) and washed with 0.05% Tween20-PBS, after which 100 μl/well of plasma sample diluted with 0.05% Tween20-Block Ace was added to the plate. After 2 hours incubation at 37° C., the plates were washed and further incubated for 2 hours with a 1:1000-diluted rabbit anti-human IgG (γ-chain-specific) (DAKO, Glostrup, Denmark). The plates were washed, and then 100 μl of 1:100-diluted goat anti-rabbit IgG-conjugated horseradish peroxidase (EnVision, DAKO) was added to each well, and the plates were then incubated at room temperature for 40 min. After the plates were washed once, 100 μl/well of tetramethyl benzidine substrate solution (KPL, Guildford, UK) was added, and the reaction was stopped by the addition of 1 M phosphoric acid. The values are shown as optical density (OD) units/ml, and responses to the HIV peptide were subtracted. IgG reactive to a corresponding PTHrP peptide was judged to be positive when the difference of the OD in 1:100-diluted plasma exceeded 0.05. The results that IgG reactive to either the PTHrP102-111 or the […] peptide was detected in 8 of 10 healthy donors and in 7 of 10 prostate cancers are shown in Table 2 hereinafter.
In a similar way to Example 3, it was examined whether IgGs reactive to peptides of PTHrP 42-51 and PTHrP 59-67 could be detected in the plasma of 10 healthy donors and 10 cancer patients. The cut-off value at 1:100-diluted plasma was ODO.054.

[2] = system: PBMCs of HLA-A2^+ healthy donors and prostate cancer patients; assay: Assay for peptide-specific CTLs in PBMCs (IFN-γ ELISA, peptide-pulsed T2 cells); assay type: cell-based, human; conditions: for INF-γ production: T2 cells
[3] = HLA-A2^+ prostate cancer patients

For “FLHHLIAEIH [PTHrP 59-68, previously reported PTHrP peptide generating CTLs from HLA-A*0201 healthy donors [17], reference compound]”, the “IgG reactive to the peptide in plasma (difference of OD)” value (shortened to “IgG reactive … (difference of OD)”) ([1]; HLA-A2^+ healthy donor #1) was 0.0855 OD, the “IgG reactive … (difference of OD)” value ([1]; HLA-A2^+ healthy donor #2) was “— (IgG reactive to a corresponding peptide was judged to be positive when a difference of OD in a 1:100-diluted plasma was more than 0.054.)” and the “IgG reactive … (difference of OD)” value ([1]; HLA-A2^+ healthy donor #3) was “— (IgG reactive to a corresponding peptide was judged to be positive when a difference of OD in a 1:100-diluted plasma was more than 0.054.)”. For the same sequence, the “IgG reactive … (difference of OD)” value ([1]; HLA-A2^+ healthy donor #4) was “— (IgG reactive to a corresponding peptide was judged to be positive when a difference of OD in a 1:100-diluted plasma was more than 0.054.)”, the “IgG reactive … (difference of OD)” value ([1]; HLA-A2^+ healthy donor #5) was “— (IgG reactive to a corresponding peptide was judged to be positive when a difference of OD in a 1:100-diluted plasma was more than 0.054.)” and the “IgG reactive … (difference of OD)” value ([1]; HLA-A2^+ healthy donor #6) was “— (IgG reactive to a corresponding peptide was judged to be positive when a difference of OD in a 1:100-diluted plasma was more than 0.054.)”. For the same sequence, the “IgG reactive … (difference of OD)” value ([1]; HLA-A2^+ healthy donor #7) was 0.119 OD, the “IgG reactive … (difference of OD)” value ([1]; HLA-A2^+ healthy donor #8) was 0.167 OD and the “IgG reactive … (difference of OD)” value ([1]; HLA-A2^+ healthy donor #9) was 0.065 OD. For the same sequence, the “IgG reactive … (difference of OD)” value ([1]; HLA-A2^+ healthy donor #10) was 0.112 OD, the “Total (IgG-positive donors / donors tested)” value ([1]; HLA-A2^+ healthy donors) was 5/10 and the “IgG reactive … (difference of OD)” value ([1]; HLA-A2^+ prostate cancer patient #1) was “— (IgG reactive to a corresponding peptide was judged to be positive when a difference of OD in a 1:100-diluted plasma was more than 0.054.)”. The “IgG reactive … (difference of OD)” value ([1]; HLA-A2^+ prostate cancer patient #2) was “— (IgG reactive to a corresponding peptide was judged to be positive when a difference of OD in a 1:100-diluted plasma was more than 0.054.)”, the “IgG reactive … (difference of OD)” value ([1]; HLA-A2^+ prostate cancer patient #3) was 0.0795 OD and the “IgG reactive … (difference of OD)” value ([1]; HLA-A2^+ prostate cancer patient #4) was “— (IgG reactive to a corresponding peptide was judged to be positive when a difference of OD in a 1:100-diluted plasma was more than 0.054.)”. The “IgG reactive … (difference of OD)” value ([1]; HLA-A2^+ prostate cancer patient #5) was “— (IgG reactive to a corresponding peptide was judged to be positive when a difference of OD in a 1:100-diluted plasma was more than 0.054.)”, the “IgG reactive … (difference of OD)” value ([1]; HLA-A2^+ prostate cancer patient #6) was “— (IgG reactive to a corresponding peptide was judged to be positive when a difference of OD in a 1:100-diluted plasma was more than 0.054.)” and the “IgG reactive … (difference of OD)” value ([1]; HLA-A2^+ prostate cancer patient #7) was “— (IgG reactive to a corresponding peptide was judged to be positive when a difference of OD in a 1:100-diluted plasma was more than 0.054.)”. The “IgG reactive … (difference of OD)” value ([1]; HLA-A2^+ prostate cancer patient #8) was “— (IgG reactive to a corresponding peptide was judged to be positive when a difference of OD in a 1:100-diluted plasma was more than 0.054.)”, the “IgG reactive … (difference of OD)” value ([1]; HLA-A2^+ prostate cancer patient #9) was “— (IgG reactive to a corresponding peptide was judged to be positive when a difference of OD in a 1:100-diluted plasma was more than 0.054.)” and the “IgG reactive … (difference of OD)” value ([1]; HLA-A2^+ prostate cancer patient #10) was 0.1305 OD. For the same sequence, the “Total (IgG-positive patients / patients tested)” value [1, 3] was 2/10, the INF-γ production ([2]; HLA-A2^+ healthy donor #1 (A0201)) was 23 pg/mL and the INF-γ production ([2]; HLA-A2^+ healthy donor #2 (A0201)) was 51 pg/mL. It also gave an INF-γ production ([2]; HLA-A2^+ healthy donor #3 (A0201)) of 0 pg/mL, an INF-γ production ([2]; HLA-A2^+ healthy donor #4 (A0201)) of 0 pg/mL and an INF-γ production ([2]; HLA-A2^+ healthy donor #5 (A0206)) of 0 pg/mL. The INF-γ production ([2]; HLA-A2^+ healthy donor #6 (A0206)) was 46 pg/mL, the INF-γ production ([2]; HLA-A2^+ healthy donor #7 (A0206)) was 0 pg/mL and the INF-γ production ([2]; HLA-A2^+ healthy donor #8 (A0206)) was 0 pg/mL. For the same sequence, the INF-γ production ([2]; HLA-A2^+ healthy donor #9 (A0206)) was 0 pg/mL, the INF-γ production ([2]; HLA-A2^+ healthy donor #10 (A0207)) was 0 pg/mL and the “induced peptide-specific CTLs, number of donors” value ([2]; HLA-A2^+ healthy donors) was “no peptide-specific CTLs were induced”. The “Total (donors with significant peptide-specific IFN-γ production / donors tested)” value ([2]; HLA-A2^+ healthy donors, p < 0.05) was 0/10, the INF-γ production ([2]; HLA-A2^+ prostate cancer patient #1 (A0206)) was 31 pg/mL and the INF-γ production ([2]; HLA-A2^+ prostate cancer patient #2 (A0210)) was 0 pg/mL. The INF-γ production ([2]; HLA-A2^+ prostate cancer patient #3 (A0210)) was 48 pg/mL, the INF-γ production ([2]; HLA-A2^+ prostate cancer patient #4 (A0206)) was 138 pg/mL and the INF-γ production ([2]; HLA-A2^+ prostate cancer patient #5 (A0206)) was 154 pg/mL. It also gave an INF-γ production ([2]; HLA-A2^+ prostate cancer patient #6 (A0207)) of 0 pg/mL, an INF-γ production ([2]; HLA-A2^+ prostate cancer patient #7 (A0206)) of 222 pg/mL and an INF-γ production ([2]; HLA-A2^+ prostate cancer patient #8 (A0206)) of 146 pg/mL. For the same sequence, the INF-γ production ([2]; HLA-A2^+ prostate cancer patient #9 (A0201)) was 43 pg/mL, the INF-γ production ([2]; HLA-A2^+ prostate cancer patient #10 (A0201)) was 112 pg/mL and the “induced peptide-specific CTLs (peptide-specific IFN-γ production), number of patients” value [2, 3] was 5 of 10. The “Total (patients with significant peptide-specific IFN-γ production / patients tested)” value ([2]; HLA-A2^+ prostate cancer patients, p < 0.05) was 5/10.
